In article PMC5980259, “GI‐530159, a novel, selective, mechanosensitive two‐pore‐domain potassium (K2P) channel opener, reduces rat dorsal root ganglion neuron excitability” (British Journal of Pharmacology, 2017):

Columns and labels:
TREK1 = tested on: TREK1; parameters: method as in Cao et al., 2010; conditions: ref Cao et al., 2010; read-out: EC50 in electrophysiological experiments; cited from earlier work
hTRAAK = biological target: T1, hTRAAK (Homo sapiens, UniProt Q9NYG8); experiment: Whole-cell patch clamp, transiently transfected tsA-201 cells, TRAAK; format: cell-based; conditions: Supporting Information Figure S2
T1 construct: expressed in transfected cells; host or cells: tsA-201, transient, pcDNA3.1 vector
T1 sequence (Q9NYG8 1-393): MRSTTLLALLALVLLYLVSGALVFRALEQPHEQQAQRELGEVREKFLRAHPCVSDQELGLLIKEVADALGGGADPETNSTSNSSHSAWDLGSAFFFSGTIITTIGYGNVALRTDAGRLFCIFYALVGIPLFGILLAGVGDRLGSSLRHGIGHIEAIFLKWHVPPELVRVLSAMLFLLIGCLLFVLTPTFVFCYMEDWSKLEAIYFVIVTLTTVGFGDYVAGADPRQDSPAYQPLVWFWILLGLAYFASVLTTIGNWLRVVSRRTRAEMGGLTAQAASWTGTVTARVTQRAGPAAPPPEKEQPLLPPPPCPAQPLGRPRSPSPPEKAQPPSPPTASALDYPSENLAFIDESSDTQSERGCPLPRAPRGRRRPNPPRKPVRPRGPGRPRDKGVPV
Protocol: Recordings of hTREK1, hTREK1∆N, hTREK2, hTRAAK and […] currents from transiently transfected tsA‐201 cells were performed using methods as described in Veale and Mathie (2016). Briefly, the pcDNA3.1 vector was cloned with the gene of interest, and these vectors and a similar vector containing GFP were incorporated into the tsA201 cells (0.5 μg per well) using the calcium phosphate method. The cells were incubated for 6–12 h at 37°C in […] and 5% carbon dioxide. Cells were then washed using a PBS solution and used for experiments after 24 h.
Currents were recorded using whole‐cell patch‐clamp using an Axopatch 1D amplifier. Cells were placed in a recording chamber filled with an external medium composed of 145 mM, NaCl, 2.5 mM KCl, 3 mM MgCl2, 1 mM CaCl2 and 10 mM HEPES (pH to 7.4, using NaOH). The internal medium used in the glass pipette comprised 150 mM KCl, 3 mM MgCl2, 5 mM (or 0.1 mM) EGTA and 10 mM HEPES (pH to 7.4, using KOH). GI‐530159 was applied by bath perfusion. Currents were recorded and analysed using pCLAMP 10.2 software Microsoft Excel. The voltage protocol used for recording current through K2P channels was as previously described (Veale and Mathie, 2016). For analysis, we measured the current difference between the −80 and −40 mV steps.

hTREK1 = biological target: T2, hTREK1 (Homo sapiens, UniProt O95069); experiment: Manual whole-cell patch clamp, HEK293 cells stably expressing TREK1; format: cell-based; parameters: expressed in transfected cells; conditions: 100 μM; n = 7
T2 sequence (O95069 1-426): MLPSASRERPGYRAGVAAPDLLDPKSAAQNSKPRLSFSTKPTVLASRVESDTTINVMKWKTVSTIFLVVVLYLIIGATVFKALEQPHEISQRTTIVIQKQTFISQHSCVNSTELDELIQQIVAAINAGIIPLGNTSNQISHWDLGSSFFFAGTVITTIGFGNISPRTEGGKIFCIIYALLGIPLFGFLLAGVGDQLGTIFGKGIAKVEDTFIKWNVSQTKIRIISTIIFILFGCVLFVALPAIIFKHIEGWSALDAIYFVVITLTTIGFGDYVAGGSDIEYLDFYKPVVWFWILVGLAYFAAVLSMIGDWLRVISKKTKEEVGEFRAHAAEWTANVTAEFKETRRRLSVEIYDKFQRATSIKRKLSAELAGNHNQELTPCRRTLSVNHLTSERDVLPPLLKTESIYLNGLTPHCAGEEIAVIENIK
Protocol: Electrophysiological studies were performed on CHO or HEK293 cells, stably expressing human recombinant TREK1; tsA‐201 cells transiently transfected with human recombinant K2P channels and acutely dissociated rat DRG cells, all at room temperature (22–24°C).
Studies were performed using a conventional patch clamp and Multiclamp 700B and pCLAMP software (Molecular Devices, Sunnyvale, CA, USA). For conventional manual patch clamp, glass coverslips containing HEK293 cells were perfused with an extracellular solution (ECS) containing (in mM): 135 NaCl, 4.7 KCl, 1 CaCl2, 1 MgCl2, 10 HEPES and 10 glucose, pH 7.4, with NaOH (310 mOsmol·L^−1). The patch pipette was filled with (in mM): 130 KCl, 1 MgCl2, 5 MgATP, 10 HEPES and 10 BAPTA, pH adjusted to 7.3 with KOH (290 mOsmol·L^−1).

Kv7.3(KCNQ3) = Kv7.3(KCNQ3) (Homo sapiens, UniProt O43525); experiment: BL-1249 selectivity (manual patch-clamp and flux assay platforms), Kv7.3; format: cell-based; conditions: 10 μM
NaV1.7 = NaV1.7 (Homo sapiens, UniProt Q15858); experiment: BL-1249 selectivity (manual patch-clamp and flux assay platforms), NaV1.7; format: cell-based; conditions: 10 μM
Chain of NaV1.7 (Q15858 whole entry): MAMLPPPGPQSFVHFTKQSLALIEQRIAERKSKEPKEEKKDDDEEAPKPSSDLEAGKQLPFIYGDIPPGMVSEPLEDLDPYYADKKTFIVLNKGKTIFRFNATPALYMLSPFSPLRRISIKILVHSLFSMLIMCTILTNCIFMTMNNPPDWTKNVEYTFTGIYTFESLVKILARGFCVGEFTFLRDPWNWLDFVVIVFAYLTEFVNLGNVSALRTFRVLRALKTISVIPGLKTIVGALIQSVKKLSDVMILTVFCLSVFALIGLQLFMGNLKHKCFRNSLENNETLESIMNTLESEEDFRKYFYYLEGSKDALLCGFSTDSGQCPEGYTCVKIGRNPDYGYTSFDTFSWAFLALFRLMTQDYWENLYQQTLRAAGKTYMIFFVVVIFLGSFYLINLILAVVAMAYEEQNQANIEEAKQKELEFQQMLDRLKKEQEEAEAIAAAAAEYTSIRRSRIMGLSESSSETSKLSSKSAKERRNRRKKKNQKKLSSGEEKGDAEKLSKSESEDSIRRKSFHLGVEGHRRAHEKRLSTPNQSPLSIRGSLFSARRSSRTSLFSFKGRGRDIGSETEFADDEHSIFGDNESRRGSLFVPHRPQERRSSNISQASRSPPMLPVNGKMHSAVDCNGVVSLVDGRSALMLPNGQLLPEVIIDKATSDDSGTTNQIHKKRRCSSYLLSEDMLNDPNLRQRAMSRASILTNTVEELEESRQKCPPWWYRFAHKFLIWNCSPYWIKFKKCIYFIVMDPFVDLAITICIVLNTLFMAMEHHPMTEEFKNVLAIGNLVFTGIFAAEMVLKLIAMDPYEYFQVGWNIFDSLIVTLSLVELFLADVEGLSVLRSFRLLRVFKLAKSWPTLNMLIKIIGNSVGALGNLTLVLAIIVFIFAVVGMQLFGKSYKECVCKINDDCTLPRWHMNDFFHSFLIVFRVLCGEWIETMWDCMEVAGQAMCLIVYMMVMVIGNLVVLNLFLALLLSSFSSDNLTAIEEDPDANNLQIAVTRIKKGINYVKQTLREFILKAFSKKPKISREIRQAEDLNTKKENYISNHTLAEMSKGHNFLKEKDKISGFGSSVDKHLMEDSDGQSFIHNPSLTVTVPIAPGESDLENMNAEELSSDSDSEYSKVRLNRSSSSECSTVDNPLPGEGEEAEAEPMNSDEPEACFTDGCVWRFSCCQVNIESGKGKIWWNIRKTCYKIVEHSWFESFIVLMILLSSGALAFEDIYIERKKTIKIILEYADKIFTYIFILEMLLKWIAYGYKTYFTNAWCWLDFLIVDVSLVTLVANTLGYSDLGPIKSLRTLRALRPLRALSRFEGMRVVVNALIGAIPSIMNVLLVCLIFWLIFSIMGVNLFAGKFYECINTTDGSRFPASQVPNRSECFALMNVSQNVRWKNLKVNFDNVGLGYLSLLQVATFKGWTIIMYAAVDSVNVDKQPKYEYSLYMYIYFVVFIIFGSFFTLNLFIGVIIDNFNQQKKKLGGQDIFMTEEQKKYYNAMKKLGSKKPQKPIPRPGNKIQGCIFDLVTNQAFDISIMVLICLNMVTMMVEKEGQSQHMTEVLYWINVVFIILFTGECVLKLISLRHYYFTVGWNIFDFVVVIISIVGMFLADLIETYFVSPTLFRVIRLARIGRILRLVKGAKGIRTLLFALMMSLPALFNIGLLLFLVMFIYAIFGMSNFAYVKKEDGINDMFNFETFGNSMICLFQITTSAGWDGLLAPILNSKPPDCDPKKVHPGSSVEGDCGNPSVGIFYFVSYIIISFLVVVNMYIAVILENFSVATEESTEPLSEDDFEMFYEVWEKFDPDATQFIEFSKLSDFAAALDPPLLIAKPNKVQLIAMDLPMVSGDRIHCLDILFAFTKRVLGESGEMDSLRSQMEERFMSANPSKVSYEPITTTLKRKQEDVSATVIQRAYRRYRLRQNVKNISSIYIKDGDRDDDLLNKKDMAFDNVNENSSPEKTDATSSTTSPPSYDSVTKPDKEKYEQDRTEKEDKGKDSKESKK

TASK3 (K2P9.1) = TASK3 (K2P9.1) (Homo sapiens, UniProt Q9NPC2); parameters: method as in Cao et al., 2010; conditions: ref Cao et al., 2010; cited from earlier work
Chain of TASK3 (K2P9.1) (Q9NPC2 whole entry, species assumed): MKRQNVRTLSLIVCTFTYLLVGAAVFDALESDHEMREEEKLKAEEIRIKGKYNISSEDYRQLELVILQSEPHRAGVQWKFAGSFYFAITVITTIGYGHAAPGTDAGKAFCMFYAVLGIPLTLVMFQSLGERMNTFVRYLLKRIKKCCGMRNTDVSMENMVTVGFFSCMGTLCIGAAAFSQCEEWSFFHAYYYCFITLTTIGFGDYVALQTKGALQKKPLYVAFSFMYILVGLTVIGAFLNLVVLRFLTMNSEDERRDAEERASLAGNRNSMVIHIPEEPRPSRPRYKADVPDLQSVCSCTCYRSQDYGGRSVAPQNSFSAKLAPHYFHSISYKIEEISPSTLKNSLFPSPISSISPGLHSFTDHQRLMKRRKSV

BK (KCa1.1) = BK (KCa1.1) (Homo sapiens, UniProt Q12791); experiment: BL-1249 selectivity (manual patch-clamp and flux assay platforms), BK; format: cell-based; conditions: 10 μM
Chain of BK (KCa1.1) (Q12791 whole entry, species assumed): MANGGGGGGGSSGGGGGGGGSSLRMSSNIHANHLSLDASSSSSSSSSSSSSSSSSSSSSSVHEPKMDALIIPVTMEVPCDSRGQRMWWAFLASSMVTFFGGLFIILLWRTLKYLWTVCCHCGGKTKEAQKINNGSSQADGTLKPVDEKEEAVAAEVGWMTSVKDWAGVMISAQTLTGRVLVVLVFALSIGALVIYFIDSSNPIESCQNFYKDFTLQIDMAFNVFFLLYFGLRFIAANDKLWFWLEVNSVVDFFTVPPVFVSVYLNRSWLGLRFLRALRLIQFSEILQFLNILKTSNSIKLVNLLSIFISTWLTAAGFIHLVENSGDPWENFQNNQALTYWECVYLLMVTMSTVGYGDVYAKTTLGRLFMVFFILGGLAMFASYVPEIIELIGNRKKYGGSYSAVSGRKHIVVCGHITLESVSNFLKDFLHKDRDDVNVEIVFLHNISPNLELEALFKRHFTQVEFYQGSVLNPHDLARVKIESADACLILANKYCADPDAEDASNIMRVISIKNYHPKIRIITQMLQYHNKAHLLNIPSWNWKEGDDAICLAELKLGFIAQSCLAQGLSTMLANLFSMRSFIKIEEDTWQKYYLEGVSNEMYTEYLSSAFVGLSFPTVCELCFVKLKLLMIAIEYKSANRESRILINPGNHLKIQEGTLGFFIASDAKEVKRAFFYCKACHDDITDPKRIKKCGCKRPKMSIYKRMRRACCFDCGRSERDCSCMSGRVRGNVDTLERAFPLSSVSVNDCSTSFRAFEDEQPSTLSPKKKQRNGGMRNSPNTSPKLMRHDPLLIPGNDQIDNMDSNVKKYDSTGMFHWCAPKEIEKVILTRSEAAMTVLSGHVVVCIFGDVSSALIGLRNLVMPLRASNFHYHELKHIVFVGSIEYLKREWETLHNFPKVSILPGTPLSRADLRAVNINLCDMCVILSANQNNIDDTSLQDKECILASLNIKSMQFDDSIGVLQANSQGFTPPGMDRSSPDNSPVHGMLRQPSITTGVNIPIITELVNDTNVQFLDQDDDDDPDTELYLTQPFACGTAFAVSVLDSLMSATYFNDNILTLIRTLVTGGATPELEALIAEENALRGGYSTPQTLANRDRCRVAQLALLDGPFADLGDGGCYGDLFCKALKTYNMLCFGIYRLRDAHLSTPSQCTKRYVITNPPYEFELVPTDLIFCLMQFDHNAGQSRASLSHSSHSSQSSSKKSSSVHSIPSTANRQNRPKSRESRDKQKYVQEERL

Kv7.2 (KCNQ2) = Kv7.2 (KCNQ2) (Homo sapiens, UniProt O43526); experiment: BL-1249 selectivity (manual patch-clamp and flux assay platforms), Kv7.2; format: cell-based; conditions: 10 μM
[1] = tested on: Na current in DRG neurons; experiment: Voltage-clamp recordings from DRG neurons, Na current; format: cell-based, rat
Protocol: Acutely dissociated rat DRG cells were obtained according to a previously described protocol (Passmore, 2005). All animal care and experimental procedures complied with guidelines and were approved by the Pfizer Neusentis Institutional Animal Use and Care Committee. Animal studies are reported in compliance with the ARRIVE guidelines (Kilkenny et al., 2010; McGrath and Lilley, 2015).Cells were plated on coated coverslips (poly‐D‐lysine/laminin, BD Biosciences, San Jose, CA, USA) prior to patching on the same day. Cells were perfused with an extracellular solution containing (in mM): 135 NaCl, 4.7 KCl, 1 CaCl2, 1 MgCl2, 10 HEPES and 10 glucose, pH 7.4, with NaOH (310 mOsmol·L^−1). Pipette solution contained (in mM): 130 KCl, 1 MgCl2, 5 MgATP, 10 HEPES and 5 EGTA, pH adjusted to 7.3 with KOH (290 mOsmol·L^−1). For whole‐cell recordings, currents were filtered at 2 kHz and sampled at 5 kHz. Series resistance was compensated for by up to 80%. For current‐clamp recordings, action potential firing and resting membrane potential (RMP) were recorded from small cells ([…]). GI‐530159 was dissolved in 0.3% DMSO as 10 mM stock and applied in the vicinity of cells using a gravity fed perfusion system (MSC‐200, Bio‐Logic SAS, Claix, France).

Compound: c1ccc(-c2nnn[nH]2)c(Nc2cccc3c2CCCC3)c1 [BL‐1249, (5,6,7,8‐tetrahydro‐naphthalen‐1‐yl)‐[2‐(1H‐tetrazol‐5‐yl)‐phenyl]‐amine]
- EC50 (TREK1): ~1 µM
- effect on TRAAK channels (hTRAAK): clear enhancement
- maximal enhanced current (hTREK1): 7.2 ± 1.3 nA
- effect on Kv7.3 (KCNQ3) (Kv7.3(KCNQ3)): significant inhibition
- effect on NaV1.7 (NaV1.7): significant inhibition
- effect on TASK3 (K2P9.1) channels (TASK3 (K2P9.1)): strong activator
- effect on BK (KCa1.1) (BK (KCa1.1)): significant inhibition
- effect on Kv7.2 (KCNQ2) (Kv7.2 (KCNQ2)): significant inhibition
- block of Na current in DRG neurons [1]: clear block
